Results taken from the supplement of paper PMC11451515.

Tested on: P12-Ichikawa
Test: cell viability relative to DMSO control; higher = less cytotoxic
Settings: 48 h
Method in brief: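 Library compounds in DMSO were pin-dosed in an 11-point threefold series (47 μM to 0.79 nM) onto leukemia cells in 1536-well plates (5 μl). Plates held 500 cells/well of NOMO1 or SEM or 1000 cells/well of P12-Ichikawa, each adapted for at least four passages in each medium. Luminescence was read with CellTiter-Glo One after 48 h at 37°C. Viability means the per-plate percentage relative to DMSO wells, using cell-free wells as background.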

[1] = HPLM + 10% dialyzed FBS, 0.000781 µM
[2] = HPLM + 10% dialyzed FBS, 0.00234 µM
[3] = HPLM + 10% dialyzed FBS, 0.00702 µM
[4] = HPLM + 10% dialyzed FBS, 0.0211 µM
[5] = HPLM + 10% dialyzed FBS, 0.0632 µM
[6] = HPLM + 10% dialyzed FBS, 0.19 µM
[7] = HPLM + 10% dialyzed FBS, 0.569 µM
[8] = HPLM + 10% dialyzed FBS, 1.71 µM
[9] = HPLM + 10% dialyzed FBS, 5.12 µM
[10] = HPLM + 10% dialyzed FBS, 15.4 µM
[11] = HPLM + 10% dialyzed FBS, 46.1 µM
[12] = RPMI 5 mM glucose + 10% FBS, 0.000781 µM
[13] = RPMI 5 mM glucose + 10% FBS, 0.00234 µM
[14] = RPMI 5 mM glucose + 10% FBS, 0.00702 µM
[15] = RPMI 5 mM glucose + 10% FBS, 0.0211 µM
[16] = RPMI 5 mM glucose + 10% FBS, 0.0632 µM
[17] = RPMI 5 mM glucose + 10% FBS, 0.19 µM
[18] = RPMI 5 mM glucose + 10% FBS, 0.569 µM
[19] = RPMI 5 mM glucose + 10% FBS, 1.71 µM
[20] = RPMI 5 mM glucose + 10% FBS, 5.12 µM
[21] = RPMI 5 mM glucose + 10% FBS, 15.4 µM
[22] = RPMI 5 mM glucose + 10% FBS, 46.1 µM
[23] = RPMI 5 mM glucose + 10% dialyzed FBS, 0.000781 µM
[24] = RPMI 5 mM glucose + 10% dialyzed FBS, 0.00234 µM
[25] = RPMI 5 mM glucose + 10% dialyzed FBS, 0.00702 µM
[26] = RPMI 5 mM glucose + 10% dialyzed FBS, 0.0211 µM
[27] = RPMI 5 mM glucose + 10% dialyzed FBS, 0.0632 µM
[28] = RPMI 5 mM glucose + 10% dialyzed FBS, 0.19 µM
[29] = RPMI 5 mM glucose + 10% dialyzed FBS, 0.569 µM
[30] = RPMI 5 mM glucose + 10% dialyzed FBS, 1.71 µM
[31] = RPMI 5 mM glucose + 10% dialyzed FBS, 5.12 µM
[32] = RPMI 5 mM glucose + 10% dialyzed FBS, 15.4 µM
[33] = RPMI 5 mM glucose + 10% dialyzed FBS, 46.1 µM

SMILES | cell viability [1] | cell viability [2] | cell viability [3] | cell viability [4] | cell viability [5] | cell viability [6] | cell viability [7] | cell viability [8] | cell viability [9] | cell viability [10] | cell viability [11] | cell viability [12] | cell viability [13] | cell viability [14] | cell viability [15] | cell viability [16] | cell viability [17] | cell viability [18] | cell viability [19] | cell viability [20] | cell viability [21] | cell viability [22] | cell viability [23] | cell viability [24] | cell viability [25] | cell viability [26] | cell viability [27] | cell viability [28] | cell viability [29] | cell viability [30] | cell viability [31] | cell viability [32] | cell viability [33]
Cc1ccc([S+](=O)([O-])OCC(=O)Nc2ccc(C(=O)O)c(O)c2)cc1 | 106% | 117% | 122% | 126% | 126% | 133% | 120% | 136% | 121% | 102% | 8.9% | – | – | – | – | – | – | – | – | – | – | – | – | – | – | – | – | – | – | – | – | – | –
CC(C)(O)CC(=O)NCCn1ccc2ncnc(Nc3ccc(Oc4cccc(C(F)(F)F)c4)c(Cl)c3)c21 | 120% | 115% | 116% | 112% | 111% | 109% | 108% | 102% | 87.2% | 69.5% | 60.7% | 110% | 107% | 121% | 114% | 121% | 105% | 107% | 111% | 93.3% | 75.6% | 52% | 104% | 113% | 117% | 109% | 115% | 113% | 110% | 106% | 95.8% | 69.1% | 47.4%
NC(=O)c1ccc(N(C(N)=O)c2c(F)cccc2F)nc1-c1ccc(F)cc1F | 101% | 101% | 105% | 101% | 107% | 102% | 106% | 101% | 108% | 95.3% | 104% | 101% | 97.1% | 100% | 98.7% | 108% | 94.7% | 109% | 95.6% | 98.5% | 88.7% | 96.3% | 94.9% | 96.1% | 99% | 102% | 100% | 92.1% | 91% | 92.7% | 91.2% | 87.5% | 88.6%
O=C(O)c1cccnc1Nc1cccc(C(F)(F)F)c1 | 112% | 111% | 111% | 118% | 119% | 128% | 112% | 131% | 129% | 129% | 124% | 115% | 117% | 113% | 120% | 124% | 143% | 129% | 132% | 141% | 138% | 108% | 104% | 108% | 115% | 112% | 112% | 119% | 115% | 113% | 121% | 131% | 117%
COc1ccc2c(c1)CN(C)CC2c1ccc(Cl)c(Cl)c1 (centres undefined) | 128% | 121% | 125% | 125% | 134% | 133% | 125% | 123% | 133% | 131% | 116% | – | – | – | – | – | – | – | – | – | – | – | – | – | – | – | – | – | – | – | – | – | –
C[C@@H]1CCO[C@H]2CN\3/C=C(/C(=O)NCC4=C(F)C=C(F)C=C4)C(=O)\C(=C3C(=O)N12)O | 108% | 109% | 103% | 109% | 106% | 105% | 103% | 96.5% | 103% | 104% | 93.5% | 99.3% | 99.5% | 106% | 105% | 101% | 104% | 111% | 96.3% | 93.9% | 91.9% | 74% | 105% | 97.1% | 103% | 97.9% | 101% | 95.6% | 98.7% | 93.6% | 97.7% | 86.5% | 82.1%
COc1cc2c(cc1OC)CN(CCc1ccc(NC(=O)c3cc(OC)c(OC)cc3NC(=O)c3cnc4ccccc4c3)cc1)CC2 | 114% | 122% | 115% | 114% | 110% | 113% | 111% | 102% | 65.6% | 62.8% | 44.4% | 124% | 112% | 112% | 120% | 112% | 118% | 105% | 92.7% | 64% | 54.1% | 47.5% | 114% | 106% | 116% | 114% | 113% | 114% | 99.4% | 92% | 56.4% | 56.6% | 46.5%
CC[C@@H]([C@H](C)O)n1ncn(-c2ccc(N3CCN(c4ccc(OCC5CO[C@@](Cn6cncn6)(c6ccc(F)cc6F)C5)cc4)CC3)cc2)c1=O (some centres undefined) | 102% | 99.8% | 101% | 96.3% | 98.3% | 91.1% | 100% | 92.2% | 90.8% | 84.9% | 85.1% | 101% | 102% | 104% | 97.8% | 95% | 102% | 92.3% | 91.1% | 92.1% | 88.3% | 82.6% | 87.2% | 98% | 95.1% | 97.9% | 90.9% | 87.7% | 85.7% | 89.8% | 85.1% | 83.5% | 75%
Cc1ccnc2c1NC(=O)c1cccnc1N2C1CC1 | 97.4% | 113% | 112% | 106% | 112% | 115% | 115% | 116% | 105% | 106% | 109% | 98.3% | 109% | 117% | 108% | 110% | 116% | 113% | 115% | 102% | 95.2% | 96.5% | 93.5% | 106% | 99.9% | 110% | 108% | 106% | 104% | 111% | 97.1% | 98.8% | 96.8%
CCc1ccc(/C=C2/SC(=S)NC2=O)cc1 | 84.2% | 87.7% | 79.6% | 88.1% | 90.9% | 80.1% | 91.5% | 84% | 85.3% | 60% | 88.1% | 82.4% | 84.6% | 76% | 88.9% | 82.8% | 77.7% | 85.1% | 87.3% | 84.8% | 46.1% | 87.9% | 77.4% | 83.8% | 81.7% | 81.2% | 87.1% | 76.6% | 87.3% | 83.5% | 81.9% | 38.1% | 90.4%
O=C(O)C(=O)c1cn(Cc2ccccc2)c2ccc(-c3ccc(OC(F)(F)F)cc3)cc12 | 106% | 105% | 109% | 110% | 111% | 109% | 97.6% | 103% | 98.2% | 95% | 93.4% | 99.9% | 109% | 102% | 102% | 100% | 99.9% | 109% | 103% | 102% | 98.4% | 87% | 95.9% | 103% | 98.7% | 101% | 101% | 97.2% | 94.4% | 91.6% | 102% | 99.6% | 90.2%
OCC(O)C(O)C(O)CO (centres undefined) | 95.6% | 102% | 97.8% | 99.8% | 98.4% | 94.3% | 103% | 92.3% | 88.1% | 88.7% | 87.7% | 83.8% | 96% | 95.3% | 95.4% | 91.1% | 92.3% | 99% | 87.1% | 86.3% | 77.8% | 89.1% | 87.2% | 89.9% | 95.3% | 89.8% | 97.2% | 89.9% | 93.7% | 85.4% | 88.3% | 79.2% | 91.8%
Cc1coc2c1C(=O)C(=O)c1c-2ccc2c1CCCC2(C)C | 103% | 106% | 109% | 116% | 106% | 104% | 93% | 93.2% | 94% | 94.8% | 99.8% | 96.6% | 98.3% | 97.9% | 95.3% | 91% | 92.1% | 95.4% | 88.6% | 91.5% | 89.4% | 87.9% | 95.5% | 97.8% | 103% | 93.7% | 96.5% | 87.7% | 87.3% | 87.8% | 83.4% | 84.7% | 92.2%
COc1c(C)c2c(c(O)c1C/C=C(\C)CCC(=O)O)C(=O)OC2 | 108% | 107% | 111% | 109% | 113% | 109% | 103% | 99.1% | 90.5% | 50.2% | 38.2% | 108% | 110% | 106% | 104% | 112% | 104% | 104% | 85% | 60.9% | 36.7% | 23% | 103% | 97.8% | 95.3% | 100% | 104% | 97.6% | 103% | 82% | 64% | 39.7% | 28.7%
COc1ccc2c(c1)[C@]13CCCCC1C(C2)N(C)CC3 (some centres undefined) | 107% | 118% | 114% | 116% | 116% | 122% | 124% | 126% | 113% | 127% | 117% | 111% | 127% | 119% | 124% | 128% | 129% | 134% | 118% | 133% | 128% | 107% | 106% | 112% | 119% | 120% | 121% | 117% | 126% | 122% | 119% | 122% | 20.9%
O=C(O)c1cc(/N=N/c2ccc([S+](=O)([O-])Nc3ccccn3)cc2)ccc1O | 108% | 107% | 112% | 102% | 113% | 116% | 116% | 107% | 106% | 98.6% | 92.3% | 108% | 111% | 105% | 110% | 119% | 115% | 114% | 122% | 113% | 111% | 108% | 103% | 114% | 110% | 102% | 120% | 114% | 119% | 120% | 110% | 102% | 102%
